Values quoted from earlier work, collected in US6727058B2, “Intergrase assay” (priority 1998, dated 2004).

Target: lacR (Escherichia coli, UniProt P03023)
Settings: association constant; Barkley & Bourgeios 1980

Chain of lacR (P03023 whole entry): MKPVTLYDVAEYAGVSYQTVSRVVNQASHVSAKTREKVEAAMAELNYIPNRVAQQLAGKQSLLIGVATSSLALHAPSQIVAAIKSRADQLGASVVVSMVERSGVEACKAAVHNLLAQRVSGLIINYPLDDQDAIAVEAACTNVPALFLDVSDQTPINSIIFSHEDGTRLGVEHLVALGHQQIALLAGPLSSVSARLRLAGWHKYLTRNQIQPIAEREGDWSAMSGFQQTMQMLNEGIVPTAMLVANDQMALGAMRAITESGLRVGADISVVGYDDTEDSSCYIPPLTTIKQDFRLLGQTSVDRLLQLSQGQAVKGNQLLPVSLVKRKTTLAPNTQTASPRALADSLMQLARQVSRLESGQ

Compound: CC(C)S[C@@H]1O[C@H](CO)[C@H](O)[C@H](O)[C@H]1O [IPTG]
- ka of lacR complexing IPTG: ≈ 10^6 M^−1
